Reference: US20250230193A1, “CYCLIC COMPOUND HAVING SELECTIVE KRAS INHIBITORY EFFECT ON HRAS AND NRAS” (CHUGAI SEIYAKU KABUSHIKI KAISHA, priority 2022, published 2025)
Where a SMILES comes first, the peptide text is derived from it. Bridges are numbered along the chain shown (N, C = ends). [ ]: non-standard residue; d: D form. The star is where a group is joined. hPhe(3-Cl-4-CF3) = N[C@@H](CCc1ccc(C(F)(F)F)c(Cl)c1)C(=O)O; NPrPhe(4-CF3) = CCCN[C@@H](Cc1ccc(C(F)(F)F)cc1)C(=O)O; NMeGly(cPent) = CN[C@H](C(=O)O)C1CCCC1; Pro(4,4-F2) = O=C(O)[C@@H]1CC(F)(F)CN1; NMeD = CN[C@@H](CC(=O)O)C(=O)O; NMeL = CN[C@@H](CC(C)C)C(=O)O; Morpholide = C1CN(*)CCO1; Ac5c = NC1(C(=O)O)CCCC1; Sar = CNCC(=O)O

How the values were obtained:
[1] = biological target: GDP-bound NRAS wild-type protein (Homo sapiens, UniProt P01111); test: Binding to NRAS by surface plasmon resonance (SPR), Single Cycle Kinetics; conditions: for NRAS/KRAS (ratio of KD value with respect to NRAS to KD value with respect to KRAS): GDP-bound NRAS wild-type vs GDP-bound KRAS wild-type
[2] = biological target: GDP-bound HRAS wild-type protein (Homo sapiens, UniProt P01112); test: Binding to HRAS by surface plasmon resonance (SPR), Single Cycle Kinetics; conditions: for HRAS/KRAS (ratio of KD value with respect to HRAS to KD value with respect to KRAS): GDP-bound HRAS wild-type vs GDP-bound KRAS wild-type
Sequence of GDP-bound HRAS wild-type protein (P01112 whole entry): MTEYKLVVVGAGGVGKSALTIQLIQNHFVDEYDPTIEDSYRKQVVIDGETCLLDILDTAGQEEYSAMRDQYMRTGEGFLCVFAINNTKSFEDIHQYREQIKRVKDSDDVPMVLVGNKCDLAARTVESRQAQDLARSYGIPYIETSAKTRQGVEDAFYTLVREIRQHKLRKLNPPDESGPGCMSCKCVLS

Sequence of GDP-bound NRAS wild-type protein (P01111 whole entry): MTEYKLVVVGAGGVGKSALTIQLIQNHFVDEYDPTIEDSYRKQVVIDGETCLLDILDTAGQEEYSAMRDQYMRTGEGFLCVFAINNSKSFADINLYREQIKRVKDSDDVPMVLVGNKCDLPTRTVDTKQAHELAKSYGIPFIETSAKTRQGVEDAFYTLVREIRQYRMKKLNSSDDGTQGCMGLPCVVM

`CCC[C@H]1C(=O)N[C@@H]([C@@H](C)CC)C(=O)N(C2CC2)CC(=O)N(C)[C@H]2C/C=C\CCN(C2=O)[C@@H](Cc2ccc(C)cc2)C(=O)N(C)CC(=O)N[C@@H](CCc2ccc(C(F)(F)F)c(OC)c2)C(=O)N2C[C@H](OCC)C[C@H]2C(=O)NC2(CC(C)(C)C2)C(=O)N(C)[C@@H](CC(C)(C)C)C(=O)N(C)[C@H](C(=O)N(C)C)CC(=O)N1C` [PP2722] was tested, and the “NRAS/KRAS (ratio of KD value with respect to GDP-bound NRAS wild-type protein to KD value with respect to KRAS)” value ([1]; KD ratio NRAS/KRAS, class symbols) was “B (a compound having 3 or more and less than 10 is denoted as B)” and the “HRAS/KRAS (ratio of KD value with respect to GDP-bound HRAS wild-type protein to KD value with respect to KRAS)” value ([2]; KD ratio HRAS/KRAS, class symbols) was “B (a compound having 3 or more and less than 10 is denoted as B)”.

For `CCOC[C@H]1C(=O)N[C@@H]([C@@H](C)CC)C(=O)N2CCC[C@H]2C(=O)N(C)[C@H]2C/C=C\CCN(C2=O)[C@@H](Cc2ccc(C(F)(F)F)cc2)C(=O)N(C)CC(=O)N[C@@H](CCc2ccc(C(F)(F)F)c(OC)c2)C(=O)N2C[C@@H](C)C[C@H]2C(=O)N(C)C2(CCC2)C(=O)N(C)[C@@H](C2CCCC2)C(=O)N(C)[C@H](C(=O)N(C)C)CC(=O)N1C` [PP2363], the “NRAS/KRAS (ratio of KD value with respect to NRAS to KD value with respect to KRAS)” value ([1]; SPR) was “A (a compound having 10 or more and less than 20 is denoted as A)” and the “HRAS/KRAS (ratio of KD value with respect to HRAS to KD value with respect to KRAS)” value ([2]; SPR) was “B (a compound having 3 or more and less than 10 is denoted as B)”.

`CCO[C@@H]1C[C@H]2C(=O)NC3(CCC3)C(=O)N(C)[C@@H](C3CCCC3)C(=O)N(CCC3CCCC3)[C@H](C(=O)N3CCOCC3)CC(=O)N(C)[C@@H](CC(C)C)C(=O)N[C@@H]([C@@H](C)CC)C(=O)N(C)CC(=O)N(C)[C@H]3CCCCN(C3=O)[C@@H](Cc3ccc(C(F)(F)F)cc3)C(=O)N(C)CC(=O)N[C@@H](CCc3cc(F)c(C(F)(F)F)c(F)c3)C(=O)N2C1` [PP0651] was tested, and the “NRAS/KRAS (ratio of KD value with respect to GDP-bound NRAS wild-type protein to KD value with respect to KRAS)” value ([1]; KD ratio NRAS/KRAS, SPR) was “B (a compound having 3 or more and less than 10 is denoted as B)” and the “HRAS/KRAS (ratio of KD value with respect to GDP-bound HRAS wild-type protein to KD value with respect to KRAS)” value ([2]; KD ratio HRAS/KRAS, SPR) was “B (a compound having 3 or more and less than 10 is denoted as B)”.

For `CCCN1C(=O)CN(C)C(=O)CNC(=O)[C@H]([C@@H](C)CC)NC(=O)[C@H](CC(C)C)N(C)C(=O)C[C@@H](C(=O)N2CCOCC2)N(C)C(=O)[C@H](C2CCCC2)N(C)C(=O)C2(CCCC2)NC(=O)[C@@H]2CC(F)(F)CN2C(=O)[C@H](CCc2ccc(C(F)(F)F)c(Cl)c2)NC(=O)CN(C)C(=O)[C@@H]1Cc1ccc(C(F)(F)F)cc1` [PP0394] ([NMeL]IG[Sar][NPrPhe(4-CF3)][Sar][hPhe(3-Cl-4-CF3)][Pro(4,4-F2)][Ac5c][NMeGly(cPent)][NMeD]-Morpholide; lactam N-11), the “NRAS/KRAS (ratio of KD for GDP-bound NRAS wild-type to KD for KRAS)” value ([1]; KD ratio NRAS/KRAS, SPR) was “C (A compound having a KD ratio of 0.1 or more and less than 3 is denoted as C)” and the “HRAS/KRAS (ratio of KD for GDP-bound HRAS wild-type to KD for KRAS)” value ([2]; KD ratio HRAS/KRAS, SPR) was “C (A compound having a KD ratio of 0.1 or more and less than 3 is denoted as C)”.

`C=CC[C@H]1C(=O)N[C@@H]([C@@H](C)CC)C(=O)N(C)CC(=O)N(C)[C@H]2CCCCCN(C2=O)[C@@H](Cc2ccc(C(F)(F)F)cc2)C(=O)N(C)CC(=O)N[C@@H](CCc2cc(F)c(C(F)(F)F)c(F)c2)C(=O)N2C[C@H](OCC)C[C@H]2C(=O)NC2(CCC2)C(=O)N(C)[C@@H](C2CCCC2)C(=O)N(C)[C@H](C(=O)N(C)C)CC(=O)N1C` [PP0665] was tested, and the “NRAS/KRAS (ratio of KD value with respect to GDP-bound NRAS wild-type protein to KD value with respect to KRAS)” value ([1]; KD ratio NRAS/KRAS, SPR) was “B (a compound having 3 or more and less than 10 is denoted as B)” and the “HRAS/KRAS (ratio of KD value with respect to GDP-bound HRAS wild-type protein to KD value with respect to KRAS)” value ([2]; KD ratio HRAS/KRAS, SPR) was “B (a compound having 3 or more and less than 10 is denoted as B)”.

With `CCCCO[C@H]1CCN2C(=O)[C@H](CCc3cc(F)c(C(F)(F)F)c(F)c3)NC(=O)CN(C)C(=O)[C@H](Cc3ccc(C(F)(F)F)cc3)N3CCCCC[C@@H](C3=O)N(C)C(=O)CN(C)C(=O)[C@H]([C@@H](C)CC)NC(=O)[C@H](CC(C)C)N(C)C(=O)C[C@@H](C(=O)N3CCOCC3)N(C)C(=O)[C@H](C3CCCC3)N(C)C(=O)C3(CCC3)NC(=O)[C@H]12` [PP1009] the “NRAS/KRAS (ratio of KD value with respect to NRAS to KD value with respect to KRAS)” value ([1]; KD ratio, SPR) was “B (a compound having 3 or more and less than 10 is denoted as B)” and the “HRAS/KRAS (ratio of KD value with respect to HRAS to KD value with respect to KRAS)” value ([2]; KD ratio, SPR) was “B (a compound having 3 or more and less than 10 is denoted as B)”.

With `CC[C@H](C)[C@@H]1NC(=O)[C@H](CC(C)C)N(C)C(=O)C[C@@H](C(=O)N2CCOCC2)N(CC)C(=O)[C@H](C2CCCC2)N(C)C(=O)C2(CCC2)NC(=O)[C@@H]2[C@H](O)CCN2C(=O)[C@H](CCc2cc(F)c(C(F)(F)F)c(F)c2)NC(=O)CN(C)C(=O)[C@H](Cc2ccc(C(F)(F)F)cc2)N2CCCCC[C@@H](C2=O)N(C)C(=O)CN(C)C1=O` [PP0955] the “NRAS/KRAS (ratio of KD value with respect to NRAS to KD value with respect to KRAS)” value ([1]; KD ratio, SPR) was “A (a compound having 10 or more and less than 20 is denoted as A)” and the “HRAS/KRAS (ratio of KD value with respect to HRAS to KD value with respect to KRAS)” value ([2]; KD ratio, SPR) was “A (a compound having 10 or more and less than 20 is denoted as A)”.

With `CC[C@H](C)[C@@H]1NC(=O)[C@H](CC)N(C)C(=O)C[C@@H](C(=O)N(C)C)N(CC)C(=O)[C@H](C2CCCC2)N(C)C(=O)C2(CCC2)NC(=O)[C@@H]2CCN2C(=O)[C@H](CCc2cc(F)c(C(F)(F)F)c(F)c2)NC(=O)CN(C)C(=O)[C@H](Cc2ccc(C(F)(F)F)cc2)N2CCCC[C@@H](C2=O)N(C)C(=O)CN(C)C1=O` [PP0660] the “NRAS/KRAS (ratio of KD value with respect to GDP-bound NRAS wild-type protein to KD value with respect to KRAS)” value ([1]; KD ratio NRAS/KRAS, SPR) was “B (a compound having 3 or more and less than 10 is denoted as B)” and the “HRAS/KRAS (ratio of KD value with respect to GDP-bound HRAS wild-type protein to KD value with respect to KRAS)” value ([2]; KD ratio HRAS/KRAS, SPR) was “B (a compound having 3 or more and less than 10 is denoted as B)”.
